# Laboratory results reported in ChEMBL document CHEMBL4507266, “Data for DCP probe BAY-784” (2021).
# Tests used:
# Rattus norvegicus [1] = species on record: Rattus norvegicus; test: Testosterone Eurofins-Panlabs radioligand binding assay; set-up: ligand concentration 1.5 nM; settings: Compound concentration 10.0 uM
# [2] = biological target: L-type calcium channel, dihydropyridine site (Cav1.2 alpha-1C) (Homo sapiens, UniProt Q13936); test: Inhibition of Calcium Channel L-Type, Dihydropyridine at 10 µM in the Eurofins-Panlabs radioligand binding assay (Eurofins_assay_214600); set-up: ligand concentration 0.1 nM, non-specific ligand with concentration 1 µM Nitrendipine, incubation time 90 min, incubation temperature 25 °C; settings: Wistar, rat, rat cerebral cortex preparation, probe [3H] Nitrendipine, 0.1 nM; compound concentration 10 uM; target entry is the homologue from another species
# [3] = biological target: Neuropeptide Y receptor type 2 (Homo sapiens) (UniProt P49146); test: Inhibition of Neuropeptide Y Y2 at 10 µM in the Eurofins-Panlabs radioligand binding assay (Eurofins_assay_257110); settings: Compound concentration 10.0 uM
# Chain of Neuropeptide Y receptor type 2 (Homo sapiens) (P49146 whole entry): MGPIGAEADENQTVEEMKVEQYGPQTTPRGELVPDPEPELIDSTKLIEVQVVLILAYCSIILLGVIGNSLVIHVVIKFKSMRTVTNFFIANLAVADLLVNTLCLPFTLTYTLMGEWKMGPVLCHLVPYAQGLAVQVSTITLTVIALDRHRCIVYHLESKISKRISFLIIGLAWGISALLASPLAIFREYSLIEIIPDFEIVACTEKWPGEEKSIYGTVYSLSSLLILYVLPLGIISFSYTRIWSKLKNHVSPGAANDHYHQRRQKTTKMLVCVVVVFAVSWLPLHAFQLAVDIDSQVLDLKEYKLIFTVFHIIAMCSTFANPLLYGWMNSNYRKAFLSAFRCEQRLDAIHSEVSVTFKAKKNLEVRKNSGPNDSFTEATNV
# [4] = biological target: Carbonic anhydrase 2 (Homo sapiens) (UniProt P00918); test: Inhibition of Carbonic Anhydrase II at compound concentration of 10.0 uM in the Eurofins-Panlabs enzyme assay (Eurofins_assay_112020); set-up: substrate with concentration; settings: Compound concentration 10.0 uM
# CYP3A4 = CYP3A4 (Homo sapiens, UniProt P08684); test: CYP450, 3A4 Eurofins-Panlabs enzyme assay; settings: compound concentration 10 uM
# Chain of CYP3A4 (P08684 whole entry): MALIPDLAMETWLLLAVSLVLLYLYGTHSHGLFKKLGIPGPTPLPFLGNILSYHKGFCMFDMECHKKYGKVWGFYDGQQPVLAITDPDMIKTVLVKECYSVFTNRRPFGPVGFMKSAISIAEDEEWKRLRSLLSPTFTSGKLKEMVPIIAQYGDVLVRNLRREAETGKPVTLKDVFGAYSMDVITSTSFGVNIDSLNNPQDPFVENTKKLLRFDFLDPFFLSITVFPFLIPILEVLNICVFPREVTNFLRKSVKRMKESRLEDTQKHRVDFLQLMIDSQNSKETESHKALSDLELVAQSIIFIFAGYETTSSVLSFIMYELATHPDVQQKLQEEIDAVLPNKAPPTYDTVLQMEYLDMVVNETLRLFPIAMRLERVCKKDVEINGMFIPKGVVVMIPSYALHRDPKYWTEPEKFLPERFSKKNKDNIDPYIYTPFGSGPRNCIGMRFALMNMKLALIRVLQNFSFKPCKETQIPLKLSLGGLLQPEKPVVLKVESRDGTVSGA
# [5] = biological target: Neutrophil elastase (Homo sapiens) (UniProt P08246); test: Inhibition of Peptidase, ELA2 (Neutrophil Elastase 2) at 10 µM in the Eurofins-Panlabs enzyme assay (Eurofins_assay_166010); settings: Compound concentration 10.0 uM
# Chain of Neutrophil elastase (Homo sapiens) (P08246 whole entry): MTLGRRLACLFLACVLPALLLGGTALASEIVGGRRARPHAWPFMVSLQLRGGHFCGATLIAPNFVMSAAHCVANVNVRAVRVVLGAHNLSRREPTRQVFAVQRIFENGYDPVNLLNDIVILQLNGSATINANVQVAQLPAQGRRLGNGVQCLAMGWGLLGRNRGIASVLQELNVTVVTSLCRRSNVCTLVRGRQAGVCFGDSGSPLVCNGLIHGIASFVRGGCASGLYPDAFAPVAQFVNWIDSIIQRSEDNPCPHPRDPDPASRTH
# [6] = biological target: Thromboxane-A synthase (Homo sapiens) (UniProt P24557); test: Inhibition of Thromboxane Synthase at compound concentration of 10.0 uM in the Eurofins-Panlabs enzyme assay (Eurofins_assay_194020); set-up: substrate with concentration; settings: Compound concentration 10.0 uM
# Chain of Thromboxane-A synthase (Homo sapiens) (P24557 whole entry): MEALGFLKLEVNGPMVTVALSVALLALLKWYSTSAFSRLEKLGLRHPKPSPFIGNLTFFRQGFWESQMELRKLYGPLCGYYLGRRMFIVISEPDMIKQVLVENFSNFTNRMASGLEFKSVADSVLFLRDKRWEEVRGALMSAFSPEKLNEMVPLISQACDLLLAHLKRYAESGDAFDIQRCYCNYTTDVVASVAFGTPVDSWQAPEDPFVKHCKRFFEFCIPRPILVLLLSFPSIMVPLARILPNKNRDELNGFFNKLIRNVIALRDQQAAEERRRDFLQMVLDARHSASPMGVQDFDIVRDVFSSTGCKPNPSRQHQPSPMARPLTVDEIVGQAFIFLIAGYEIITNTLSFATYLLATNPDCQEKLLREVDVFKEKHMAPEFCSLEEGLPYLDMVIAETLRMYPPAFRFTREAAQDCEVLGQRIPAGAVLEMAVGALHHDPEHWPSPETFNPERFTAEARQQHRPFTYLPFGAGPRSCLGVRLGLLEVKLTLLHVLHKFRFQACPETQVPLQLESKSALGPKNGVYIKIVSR
# [7] = biological target: C-C chemokine receptor type 2 (Homo sapiens) (UniProt P41597); test: Inhibition of Chemokine CCR2B at 10 µM in the Eurofins-Panlabs radioligand binding assay (Eurofins_assay_217550); settings: Compound concentration 10.0 uM
# Chain of C-C chemokine receptor type 2 (Homo sapiens) (P41597 whole entry, looked up): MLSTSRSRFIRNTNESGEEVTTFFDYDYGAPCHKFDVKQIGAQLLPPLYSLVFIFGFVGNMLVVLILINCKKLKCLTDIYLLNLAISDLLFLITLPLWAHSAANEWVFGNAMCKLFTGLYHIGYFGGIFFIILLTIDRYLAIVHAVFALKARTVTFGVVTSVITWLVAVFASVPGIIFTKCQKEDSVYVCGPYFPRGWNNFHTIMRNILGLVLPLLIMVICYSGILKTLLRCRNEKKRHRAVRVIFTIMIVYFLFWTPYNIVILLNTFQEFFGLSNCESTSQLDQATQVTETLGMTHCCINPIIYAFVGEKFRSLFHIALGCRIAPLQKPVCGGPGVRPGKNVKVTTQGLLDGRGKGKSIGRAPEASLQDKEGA
# [8] = biological target: C-C chemokine receptor type 5 (Homo sapiens) (UniProt P51681); test: Inhibition of Chemokine CCR5 at 10 µM in the Eurofins-Panlabs radioligand binding assay (Eurofins_assay_217720); settings: Compound concentration 10.0 uM
# Rattus norvegicus [9] = species on record: Rattus norvegicus; test: Inhibition of Glycine, Strychnine-Sensitive at 10 µM in the Eurofins-Panlabs radioligand binding assay (Eurofins_assay_239000); settings: Compound concentration 10.0 uM
# [10] = biological target: Melanocortin receptor 3 (Homo sapiens) (UniProt P41968); test: Inhibition of Melanocortin MC3 at 10 µM in the Eurofins-Panlabs radioligand binding assay (Eurofins_assay_251300); set-up: ligand concentration 0.035 nM; settings: Compound concentration 10.0 uM
# Chain of Melanocortin receptor 3 (Homo sapiens) (P41968 whole entry): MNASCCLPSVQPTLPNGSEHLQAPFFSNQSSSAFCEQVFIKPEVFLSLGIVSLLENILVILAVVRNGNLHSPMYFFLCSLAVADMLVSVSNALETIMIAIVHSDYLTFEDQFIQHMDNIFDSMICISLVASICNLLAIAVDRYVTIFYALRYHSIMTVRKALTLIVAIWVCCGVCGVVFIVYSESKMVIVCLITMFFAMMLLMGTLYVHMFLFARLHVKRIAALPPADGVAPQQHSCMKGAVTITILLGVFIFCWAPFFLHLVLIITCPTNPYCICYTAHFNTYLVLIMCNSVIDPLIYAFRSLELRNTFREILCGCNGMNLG
# [11] = biological target: T1, Muscarinic acetylcholine receptor M5 (Homo sapiens) (UniProt P08912); test: Inhibition of Muscarinic M5 at 10 µM in the Eurofins-Panlabs radioligand binding assay (Eurofins_assay_253010); set-up: ligand concentration 0.8 nM; settings: Compound concentration 10.0 uM
# T1 sequence (whole entry): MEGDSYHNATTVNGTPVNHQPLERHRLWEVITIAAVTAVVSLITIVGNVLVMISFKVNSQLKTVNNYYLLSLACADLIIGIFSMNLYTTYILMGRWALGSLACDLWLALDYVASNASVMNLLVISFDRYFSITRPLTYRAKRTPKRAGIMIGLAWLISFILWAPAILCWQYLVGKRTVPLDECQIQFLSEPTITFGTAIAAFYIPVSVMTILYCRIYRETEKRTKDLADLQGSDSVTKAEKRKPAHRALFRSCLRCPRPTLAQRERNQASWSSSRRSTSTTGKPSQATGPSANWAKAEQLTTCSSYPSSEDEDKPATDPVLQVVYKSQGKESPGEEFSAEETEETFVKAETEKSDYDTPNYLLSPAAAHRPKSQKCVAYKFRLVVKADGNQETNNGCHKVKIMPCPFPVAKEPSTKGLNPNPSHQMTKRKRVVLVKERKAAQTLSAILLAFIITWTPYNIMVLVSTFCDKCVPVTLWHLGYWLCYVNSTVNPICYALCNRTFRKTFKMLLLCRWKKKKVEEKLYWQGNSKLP
# [12] = biological target: Delta-type opioid receptor (Homo sapiens) (UniProt P41143); settings: Compound concentration 10.0 uM
# Chain of Delta-type opioid receptor (Homo sapiens) (P41143 whole entry): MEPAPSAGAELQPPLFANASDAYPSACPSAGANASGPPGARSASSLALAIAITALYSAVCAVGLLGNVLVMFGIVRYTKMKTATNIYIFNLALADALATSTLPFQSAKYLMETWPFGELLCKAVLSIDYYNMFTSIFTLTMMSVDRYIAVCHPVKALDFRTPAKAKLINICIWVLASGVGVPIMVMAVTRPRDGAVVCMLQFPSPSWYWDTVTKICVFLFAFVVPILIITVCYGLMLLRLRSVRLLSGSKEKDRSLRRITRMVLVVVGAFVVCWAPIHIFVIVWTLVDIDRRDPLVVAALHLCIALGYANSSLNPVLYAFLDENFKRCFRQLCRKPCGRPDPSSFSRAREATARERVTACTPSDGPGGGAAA
# [13] = biological target: 5-hydroxytryptamine receptor 2B (Homo sapiens) (UniProt P41595); settings: Compound concentration 10.0 uM
# Chain of 5-hydroxytryptamine receptor 2B (Homo sapiens) (P41595 whole entry): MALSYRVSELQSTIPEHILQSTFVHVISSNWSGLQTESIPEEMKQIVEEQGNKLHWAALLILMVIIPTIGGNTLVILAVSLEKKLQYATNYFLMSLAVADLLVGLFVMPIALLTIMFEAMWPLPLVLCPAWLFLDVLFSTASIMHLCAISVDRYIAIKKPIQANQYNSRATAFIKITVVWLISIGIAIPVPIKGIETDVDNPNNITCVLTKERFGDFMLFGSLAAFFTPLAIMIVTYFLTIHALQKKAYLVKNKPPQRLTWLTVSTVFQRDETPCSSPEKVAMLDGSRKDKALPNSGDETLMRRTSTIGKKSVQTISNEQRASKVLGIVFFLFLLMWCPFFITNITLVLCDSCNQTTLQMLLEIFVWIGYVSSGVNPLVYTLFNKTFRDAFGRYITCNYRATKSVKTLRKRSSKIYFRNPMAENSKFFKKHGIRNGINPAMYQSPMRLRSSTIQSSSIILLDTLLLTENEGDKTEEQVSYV
# [14] = biological target: cGMP-specific 3',5'-cyclic phosphodiesterase (Homo sapiens) (UniProt O76074); settings: Compound concentration 10.0 uM
# [15] = biological target: GABA-A receptor; anion channel (Rattus norvegicus) (UniProt O09028+P15431+P18506+P18508+P19969+P20236+P23574+P23576+P28471+P28473+P30191+P62813+P63079+P63138+Q91ZM7+Q9ES14); settings: Compound concentration 10.0 uM
# [16] = biological target: Insulin receptor (Homo sapiens) (UniProt P06213); settings: Rattus norvegicus; Compound concentration 10.0 uM
# Chain of Insulin receptor (Homo sapiens) (P06213 28-758 limits assumed): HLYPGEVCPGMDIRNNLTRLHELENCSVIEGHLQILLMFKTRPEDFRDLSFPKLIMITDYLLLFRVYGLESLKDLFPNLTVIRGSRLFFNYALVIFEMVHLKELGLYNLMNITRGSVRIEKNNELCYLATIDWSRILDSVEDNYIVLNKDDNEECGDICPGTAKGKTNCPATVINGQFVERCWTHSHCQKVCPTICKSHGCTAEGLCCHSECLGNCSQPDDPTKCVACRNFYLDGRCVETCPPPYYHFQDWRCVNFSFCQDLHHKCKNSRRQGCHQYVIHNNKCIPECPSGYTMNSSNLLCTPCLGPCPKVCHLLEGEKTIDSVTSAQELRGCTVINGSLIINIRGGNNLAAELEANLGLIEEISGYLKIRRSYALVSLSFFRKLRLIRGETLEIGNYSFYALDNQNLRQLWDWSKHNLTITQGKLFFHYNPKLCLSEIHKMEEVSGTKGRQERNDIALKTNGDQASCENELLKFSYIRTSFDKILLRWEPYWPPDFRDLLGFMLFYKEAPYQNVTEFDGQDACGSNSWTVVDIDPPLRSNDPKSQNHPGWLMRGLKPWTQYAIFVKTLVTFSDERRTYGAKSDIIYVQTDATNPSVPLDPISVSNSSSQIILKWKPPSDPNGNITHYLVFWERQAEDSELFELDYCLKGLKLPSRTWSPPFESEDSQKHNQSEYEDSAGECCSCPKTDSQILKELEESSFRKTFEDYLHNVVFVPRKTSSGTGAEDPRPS
# Chain of Insulin receptor (Homo sapiens) (P06213 763-1382 limits assumed): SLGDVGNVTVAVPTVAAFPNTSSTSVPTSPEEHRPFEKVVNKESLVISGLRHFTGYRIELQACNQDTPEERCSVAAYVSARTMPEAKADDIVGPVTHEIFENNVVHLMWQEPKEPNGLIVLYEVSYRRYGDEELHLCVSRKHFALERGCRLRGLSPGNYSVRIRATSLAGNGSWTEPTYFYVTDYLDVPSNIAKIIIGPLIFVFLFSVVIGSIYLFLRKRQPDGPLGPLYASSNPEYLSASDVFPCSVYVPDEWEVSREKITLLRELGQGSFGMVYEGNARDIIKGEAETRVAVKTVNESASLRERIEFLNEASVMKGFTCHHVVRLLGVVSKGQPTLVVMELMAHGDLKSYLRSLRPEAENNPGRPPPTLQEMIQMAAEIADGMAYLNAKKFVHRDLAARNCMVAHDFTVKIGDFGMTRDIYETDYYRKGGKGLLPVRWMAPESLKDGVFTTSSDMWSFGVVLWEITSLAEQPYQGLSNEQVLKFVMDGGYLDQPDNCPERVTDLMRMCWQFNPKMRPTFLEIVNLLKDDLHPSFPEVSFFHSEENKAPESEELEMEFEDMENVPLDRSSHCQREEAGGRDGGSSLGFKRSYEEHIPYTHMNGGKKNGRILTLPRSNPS
# [17] = biological target: T2, 5-hydroxytryptamine receptor 2C (Homo sapiens) (UniProt P28335); settings: Compound concentration 10.0 uM
# T2 sequence (whole entry): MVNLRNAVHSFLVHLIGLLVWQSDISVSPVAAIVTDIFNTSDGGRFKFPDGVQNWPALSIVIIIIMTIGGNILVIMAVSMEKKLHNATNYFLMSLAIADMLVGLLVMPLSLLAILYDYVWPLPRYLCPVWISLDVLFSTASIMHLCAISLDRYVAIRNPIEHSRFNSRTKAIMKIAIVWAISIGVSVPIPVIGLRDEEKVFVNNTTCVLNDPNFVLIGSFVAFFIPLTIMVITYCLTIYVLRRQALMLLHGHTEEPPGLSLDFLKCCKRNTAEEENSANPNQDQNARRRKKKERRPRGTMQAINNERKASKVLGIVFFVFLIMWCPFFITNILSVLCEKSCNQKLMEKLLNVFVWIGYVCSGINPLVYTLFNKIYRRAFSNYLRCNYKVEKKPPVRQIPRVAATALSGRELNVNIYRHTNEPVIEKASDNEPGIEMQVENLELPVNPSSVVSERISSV
# [18] = biological target: Gonadotropin-releasing hormone receptor (Homo sapiens, UniProt P30968); test: Mechanistic assay measuring cellular IP1; assay type: functional
# Chain of Gonadotropin-releasing hormone receptor (P30968 whole entry): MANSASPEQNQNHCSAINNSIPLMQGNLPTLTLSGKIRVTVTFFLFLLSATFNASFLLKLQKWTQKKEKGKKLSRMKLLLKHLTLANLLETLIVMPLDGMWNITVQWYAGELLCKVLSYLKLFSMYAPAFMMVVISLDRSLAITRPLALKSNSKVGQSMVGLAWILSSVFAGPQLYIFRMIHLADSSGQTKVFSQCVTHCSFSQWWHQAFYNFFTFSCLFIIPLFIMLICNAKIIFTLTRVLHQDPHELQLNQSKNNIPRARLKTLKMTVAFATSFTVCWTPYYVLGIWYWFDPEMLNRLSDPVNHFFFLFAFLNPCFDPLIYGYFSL
# [19] = biological target: Sodium-dependent dopamine transporter (Homo sapiens) (UniProt Q01959); settings: Compound concentration 10.0 uM
Compound,inhibition (Rattus norvegicus [1]) [%],"inhibition at 90 min, 10 µM [2]",inhibition [3] [%],inhibition [4] [%],inhibition at 10 µM (CYP3A4),inhibition [5] [%],inhibition [6] [%],inhibition [7] [%],inhibition [8] [%],inhibition (Rattus norvegicus [9]) [%],inhibition [10] [%],inhibition [11] [%],inhibition [12] [%],inhibition [13] [%],inhibition [14] [%],inhibition [15] [%],inhibition [16] [%],inhibition [17] [%],IC50 [18],inhibition [19] [%]
O=C(NCc1ncc(C(F)(F)F)cc1Cl)c1ccc2c(c1)C1(CCS(=O)(=O)CC1)[C@H](C1CC1)N2S(=O)(=O)c1ccc(F)cc1 [BAY-784],16,26% (not active),2,-5,38% (not active),0,22,-1,-1,4,-7,0,5,4,-5,34,-1,9,,
O=C(NCc1ncc(C(F)(F)F)cc1Cl)c1ccc2c(c1)C1(CCS(=O)(=O)CC1)[C@@H](C1CC1)N2S(=O)(=O)c1ccc(F)cc1 [BAY-786],,,,,,,,,,,,,,,,,,,2.4 µM (not active),-4.64
